Consider 42 molecules from the PolyMetriX glass transition set.

`*C(=O)Oc1ccc(C(C)(C)c2ccc(OC(=O)c3ccc4c(c3)C(=O)N(c3ccc(Oc5ccc(N6C(=O)c7ccc(*)cc7C6=O)cc5)cc3)C4=O)cc2)cc1` (repeat unit) returned a glass transition temperature of 200.00 °C. `*C(=O)c1ccc2c(c1)C(=O)N(c1cccc(OCCOc3cccc(N4C(=O)c5ccc(*)cc5C4=O)c3)c1)C2=O` (repeat unit) showed a glass transition temperature of 191.00 °C. As for `*C(=O)c1ccc2c(c1)C(=O)N(c1cccc(Oc3cccc(Oc4cccc(N5C(=O)c6ccc(*)cc6C5=O)c4)c3)c1)C2=O` (repeat unit), the glass transition temperature was found to be 211.00 °C.

Consider `*C(=O)c1ccc2c(c1)C(=O)N(c1cccc(P(=O)(c3ccccc3)c3cccc(N4C(=O)c5ccc(*)cc5C4=O)c3)c1)C2=O` (repeat unit), for which the glass transition temperature turned out to be 273.00 °C. Consider `*CC(=O)OC(=O)COc1ccc(C(C)(C)c2ccc(O*)cc2)cc1` (repeat unit), for which the glass transition temperature was found to be 105.00 °C. `*CC(COc1ccc(C(C)(C)c2ccc(O*)cc2)cc1)OC(=O)/C=C/c1ccco1` (repeat unit) had a glass transition temperature of 107.20 °C.

With `*CC(COc1ccc(C(C)(C)c2ccc(O*)cc2)cc1)OC(=O)c1ccccc1` (repeat unit), the glass transition temperature was found to be 65.00 °C.

The molecule `*CC(COc1ccc(C(C)(c2ccccc2)c2ccc(O*)cc2)cc1)OC(=O)c1ccccc1` (repeat unit) came in with a glass transition temperature of 126.00 °C. Consider `*CC(O)CN(CCO)CC(O)COc1ccc(C(C)(C)c2ccc(O*)cc2)cc1` (repeat unit), for which the glass transition temperature was 87.10 °C.

Molecule `*CC(O)COC(=O)CCCCCCCCC(=O)OCC(O)COc1ccc(C(C)(C)c2ccc(O*)cc2)cc1` (repeat unit) registered a glass transition temperature of 30.00 °C. `*CC(O)COc1c(Cl)cc(C(C)(C)c2cc(Cl)c(OCC(O)COc3ccc(C(C)(C)c4ccc(O*)cc4)cc3)c(Cl)c2)cc1Cl` (repeat unit): the glass transition temperature was 100.00 °C. `*CC(O)COc1ccc(C(C)(C)c2ccc(OCC(O)CN3CCN(*)CC3)cc2)cc1` (repeat unit): the glass transition temperature amounted to 100.00 °C. `*CC(O)COc1ccc(C(C)(C)c2ccc(OCC(O)COc3ccc(NC(=O)CCCC(=O)Nc4ccc(O*)cc4)cc3)cc2)cc1` (repeat unit): the glass transition temperature stood at 105.00 °C.

For the molecule `*CC(O)COc1ccc(C(C)(C)c2ccc(OCC(O)COc3ccc(NC(=O)CCCCC(=O)Nc4ccc(O*)cc4)cc3)cc2)cc1` (repeat unit), the glass transition temperature is 112.00 °C. Molecule `*CC(O)COc1ccc(C(C)(C)c2ccc(OCC(O)COc3ccc(Oc4ccc(O*)cc4)cc3)cc2)cc1` (repeat unit) showed a glass transition temperature of 85.00 °C. For `*CC(O)COc1ccc(C(C)(C)c2ccc(OCC(O)COc3ccc(S(=O)(=O)c4ccc(O*)cc4)cc3)cc2)cc1` (repeat unit), the glass transition temperature turned out to be 140.00 °C. `*CC(O)COc1ccc(C(C)(C)c2ccc(OCC(O)COc3cccc(NC(=O)C(=O)Nc4cccc(O*)c4)c3)cc2)cc1` (repeat unit) displayed a glass transition temperature of 119.00 °C. Consider `*CC(O)COc1ccc(C(C)(C)c2ccc(OCC(O)COc3cccc(NC(=O)Cc4cccc(CC(=O)Nc5cccc(O*)c5)c4)c3)cc2)cc1` (repeat unit), for which the glass transition temperature is 119.00 °C. `*CC(O)COc1ccc(C(C)(C)c2ccc(OCC(O)COc3cccc(NC(=O)c4cccc(C(=O)Nc5cccc(O*)c5)c4)c3)cc2)cc1` (repeat unit) gave a glass transition temperature of 133.00 °C. The molecule `*CC(O)COc1ccc(C(C)(C)c2ccc(OCC(O)COc3cccc(O*)c3)cc2)cc1` (repeat unit) gave a glass transition temperature of 83.00 °C. The same measure for `*CC(O)COc1ccc(S(=O)(=O)c2ccc(O*)c(C)c2)cc1C` (repeat unit): 132.50 °C; for `*CC(O)COc1ccc(S(=O)(=O)c2ccc(OCC(O)COc3cccc(O*)c3)cc2)cc1` (repeat unit): 105.00 °C; for `*OS(=O)(=O)c1cccc(C(=O)Oc2ccc(C(C)(C)c3ccc(*)cc3)cc2)c1` (repeat unit): 133.00 °C. For the molecule `*Oc1ccc(C(C)(C)c2ccc(OC(=O)c3ccc(C(c4ccc(C(*)=O)cc4)(C(F)(F)F)C(F)(F)F)cc3)cc2)cc1` (repeat unit), the glass transition temperature turned out to be 124.00 °C.

In turn, `*Oc1ccc(C(C)(C)c2ccc(OC(=O)c3ccc(S(=O)(=O)c4ccc(C(*)=O)cc4)cc3)cc2)cc1` (repeat unit) returned a glass transition temperature of 220.00 °C.

The molecule `*Oc1ccc(C(C)(C)c2ccc(OC(=O)c3cccc(C(*)=O)c3)c(C)c2)cc1C` (repeat unit) returned a glass transition temperature of 162.00 °C. `*Oc1ccc(C(C)(c2ccccc2)c2ccc(OC(*)=S)cc2)cc1` (repeat unit): the glass transition temperature was 181.00 °C. `*Oc1ccc(C(C)(c2ccccc2)c2ccc(OC(=O)c3cccc(C(*)=O)c3)cc2)cc1` (repeat unit) returned a glass transition temperature of 202.00 °C. As to `*Oc1ccc(C(C)(c2ccccc2)c2ccc(OC(=O)c3ccccc3-c3ccccc3C(*)=O)cc2)cc1` (repeat unit), the glass transition temperature amounted to 172.00 °C.

Regarding `*Oc1ccc(C(C)c2ccc(OC(*)=S)cc2)cc1` (repeat unit), the glass transition temperature was found to be 107.00 °C. In turn, `*Oc1ccc(C(CC)(c2ccccc2)c2ccc(OC(*)=S)cc2)cc1` (repeat unit) yielded a glass transition temperature of 173.00 °C. As for `*Oc1ccc(C(CC)(c2ccccc2)c2ccc(OC(=O)c3ccc(C(*)=O)cc3)cc2)cc1` (repeat unit), the glass transition temperature amounted to 243.00 °C. `*Oc1ccc(C(c2ccc(OC3(F)C(*)(F)C(F)(F)C3(F)F)cc2)(C(F)(F)F)C(F)(F)F)cc1` (repeat unit) came in with a glass transition temperature of 122.50 °C. In the case of `*Oc1ccc(C2(c3ccc(OC(*)=O)cc3)c3cc(N(C)C)ccc3-c3ccc([N+](=O)[O-])cc32)cc1` (repeat unit), the glass transition temperature amounted to 278.00 °C. In the case of `*Oc1ccc(C2(c3ccc(OC(=O)c4ccc(C(*)=O)cc4)c(C)c3)CCC3CCCCC3C2)cc1C` (repeat unit), the glass transition temperature worked out at 247.00 °C. With `*Oc1ccc(C2(c3ccc(OC(=O)c4ccc(C(*)=O)cc4)cc3)CCC(C(C)(C)C)CC2)cc1` (repeat unit), the glass transition temperature amounted to 210.00 °C. The same measure for `*Oc1ccc(C2(c3ccc(OC(=O)c4cccc(C(*)=O)c4)c(C)c3)CCC3CCCCC3C2)cc1C` (repeat unit): 207.00 °C. For `*Oc1ccc(C2(c3ccc(Oc4ccc(C(=O)Oc5ccc(C(C)(C)c6ccc(OC(=O)c7ccc(*)cc7)cc6)cc5)cc4)cc3)CCC(C(C)(C)C)CC2)cc1` (repeat unit), the glass transition temperature amounted to 144.00 °C. For `*Oc1ccc(OC(=O)Oc2ccc(C(C)(C)c3ccc(OC(*)=O)cc3)cc2)cc1` (repeat unit), the glass transition temperature came to 97.00 °C. `*Oc1ccc(SC(=O)Oc2ccc(C(C)(C)c3ccc(OC(=O)Sc4ccc(*)cc4)cc3)cc2)cc1` (repeat unit) displayed a glass transition temperature of 145.00 °C. On to `*Oc1ccc2c(c1)C(C)(c1ccc(OC(=O)c3ccc(C(*)=O)cc3)cc1)CC2(C)C` (repeat unit), for which the glass transition temperature was 252.50 °C. Molecule `*Oc1ccc2c(c1)C(C)(c1ccc(OC(=O)c3cccc(C(*)=O)c3)cc1)CC2(C)C` (repeat unit) returned a glass transition temperature of 230.50 °C.
